Experimental data from patent US4101676A, “Diphenylpropylamines to treat depression” (Beecham Group Limited, priority 1973, dated 1978).

Legend:
reserpine hypothermia [1] = assay: Prevention of Reserpine Hypothermia; format: in vivo, mice (Carworth Europe male); conditions: for Reserpine Prevention Δ^6: 6 hours; for Reserpine Prevention Δ^24: 24 hours; for effects on the Reserpine Prevention tests: comparison of the two isomers
Description: The method of Spencer [Antidepressant Drugs, 194 (1967) ] was used. Groups of ten mice are given oral doses of test compound 24 18 and 2 hours before an intravenous injection of reserpine base (Serpasil). Oral temperatures of the mice are taken immediately before administration of reserpine and then 2 4 6 and 24 hours afterwards.
Mean temperatures of groups given test compounds are compared with reserpinised controls using a Students t test. Compounds causing a significant difference at the level P < 0.001 are considered active. In order to quantify anti-reserpine activity cumulative temperature differences from controls at 6 hours and 24 hours (Δ^6 and Δ^24 ) are calculated.
(§1) Carworth Europe male mice are used for all experiments apart from that using the cat nictitating membrane and test compounds are administered orally as solutions in distilled water. Compounds for intravenous administration are dissolved in 0.9% saline apart from Reserpine which is dissolved in dilute acetic acid buffered to pH5. Unless otherwise stated, the dosing interval is one hour.
(§2) The Reserpine Prevention, Reserpine Reversal and Noradrenaline Uptake Inhibition tests were carried out as described in the previous Example. The Mydriasis tests was also as described in the previous Example but using 20 mg/kg doses of each compound after which a curve was plotted of percentage increase in pupil diameter vertus time and the percentage increase was integrated with respect to time for 0-120 minutes after dosing and the result expressed as a percentage.

[2] = test system: pupil diameter (mydriasis); assay: Mydriasis integral 0-120 minutes; format: in vivo, mice; conditions: for Mydriasis Integral Percent 120 Mins.: mice, 20 mg/kg, 0-120 minutes
Description: Groups of five mice are pre-selected for uniformity of pupil diameter using a binocular microscope with a calibrated eye-piece. Pupil sizes are measured at various intervals after an intraperitoneal injection of test compound and at the peak time a curve plotted of percentage increase in pupil diameter versus log dose. From this the dose causing a 200% increase in pupil size (this lies on the linear part of the curve) is found
as §1, §2

reserpine hypothermia [3] = assay: Reversal of Reserpine Hypothermia; format: in vivo, mice (Carworth Europe male); conditions: for Reserpine Reversal Δ^6: 6 hours; for Reserpine Reversal Δ^24: 24 hours
Description: Seventeen hours later the oral temperatures of the mice are taken and various doses of test compound or vehicle given subcutaneously. Temperatures are taken 1, 2, 4 6 and 24 hours later and the results are analysed as in Test 1 (The subcutaneous route is used for convenience as the very depressed reserpinised mice cannot be reliably dosed orally).
as §1, §2

Noradrenaline uptake = assay: Inhibition of Noradrenaline Uptake in vitro (brain synaptosomes); format: biochemical, male Wistar rats; conditions: 10^-6 molar (Pharmacology 2)
Description: Synaptosomes are isolated from the brains of male Wistar rats (150-170g.) and monamine uptake determined by the method of Snyder and Coyle (1968) [Synder S. H. and Coyle J. T. J. Pharmac. exp. Ther. 165 (1968) 78-86]. Uptake was determined over a ten minute period instead of the normal five minutes.
as §2

central nervous system = conditions: Barron et al, J. Pharm. Pharmacol., 17, 509 (1965); cited from earlier work
[4] = Pharmacology 2, dose 10 (unit not given)
[5] = Pharmacology 2, dose 20 (unit not given)
[6] = Pharmacology 2, dose 40 (unit not given)

With CN(C)CC(O)C(c1ccccc1)c1ccccc1 (racemic) [Compound B, (+)-3-Dimethylamino-1,1-diphenyl-propan-2-ol] the “Reserpine Prevention Δ^6” value (reserpine hypothermia [1]; [4]) was 12 °C, the “Reserpine Prevention Δ^24” value (reserpine hypothermia [1]; [4]) was 15 °C and the “Reserpine Prevention Δ^6” value (reserpine hypothermia [1]; [5]) was 16 °C. The “Reserpine Prevention Δ^24” value (reserpine hypothermia [1]; [5]) was 23 °C, the “Reserpine Prevention Δ^6” value (reserpine hypothermia [1]; [6]) was 16 °C and the “Reserpine Prevention Δ^24” value (reserpine hypothermia [1]; [6]) was 25 °C. For the same compound, the “effects on the Reserpine Prevention tests” value (reserpine hypothermia [1]) was “roughly equal effects”, the “Mydriasis Integral Percent 120 Mins.” value [2] was 12600% and the “Reserpine Reversal Δ^6” value (reserpine hypothermia [3]; [4]) was 16 °C. The “Reserpine Reversal Δ^24” value (reserpine hypothermia [3]; [4]) was 27 °C, the “Reserpine Reversal Δ^6” value (reserpine hypothermia [3]; [5]) was 15 °C and the “Reserpine Reversal Δ^24” value (reserpine hypothermia [3]; [5]) was 19 °C. The “Reserpine Reversal Δ^6” value (reserpine hypothermia [3]; [6]) was 13 °C, the “Reserpine Reversal Δ^24” value (reserpine hypothermia [3]; [6]) was 19 °C and the “activity on the Reserpine Reversal Test” value (reserpine hypothermia [3]; low doses, (+)-isomer versus (-)-isomer) was “more active than the (-)-isomer on the Reserpine Reversal Test at low doses”. The “Inhibition of Noradrenaline Uptake In Vitro %” value (Noradrenaline uptake) was 40%.
In the case of CN(C)CC(O)C(c1ccccc1)c1ccccc1 (single isomer, unassigned; (-)) [Compound C, (-)-3-Dimethylamino-1,1-diphenylpropan-2-ol], the “Reserpine Prevention Δ^6” value (reserpine hypothermia [1]; [4]) is reported as 11 °C, the “Reserpine Prevention Δ^24” value (reserpine hypothermia [1]; [4]) is reported as 17 °C and the “Reserpine Prevention Δ^6” value (reserpine hypothermia [1]; [5]) is reported as 13 °C. For the same compound, the “Reserpine Prevention Δ^24” value (reserpine hypothermia [1]; [5]) was 19 °C, the “Reserpine Prevention Δ^6” value (reserpine hypothermia [1]; [6]) was 12 °C and the “Reserpine Prevention Δ^24” value (reserpine hypothermia [1]; [6]) was 19 °C. For the same compound, the “effects on the Reserpine Prevention tests” value (reserpine hypothermia [1]) was “roughly equal effects”, the peripheral anticholinergic effects ([2]; (-)-isomer versus (+)-isomer) was “fewer peripheral anticholinergic effects than the (+)-isomer” and the “Mydriasis Integral Percent 120 Mins.” value [2] was 6700%. For the same compound, the “Reserpine Reversal Δ^6” value (reserpine hypothermia [3]; [4]) was 6 °C, the “Reserpine Reversal Δ^24” value (reserpine hypothermia [3]; [4]) was 3 °C and the “Reserpine Reversal Δ^6” value (reserpine hypothermia [3]; [5]) was 16 °C. For the same compound, the “Reserpine Reversal Δ^24” value (reserpine hypothermia [3]; [5]) was 19 °C, the “Reserpine Reversal Δ^6” value (reserpine hypothermia [3]; [6]) was 13 °C and the “Reserpine Reversal Δ^24” value (reserpine hypothermia [3]; [6]) was 20 °C. For the same compound, the “Inhibition of Noradrenaline Uptake In Vitro %” value (Noradrenaline uptake) was 64%.
In the case of CN(C)CCC(O)(c1ccccc1)c1ccccc1 [1:1-diphenyl-3-dimethylaminopopan-1-ol], the “effects on the central nervous system” value (central nervous system) is given as “considerable effects on the central nervous system” and the side effects (central nervous system) is given as “anorexia, diuresis, ataxia and drowsiness”.
